Read-outs that look alike come from different tables or passages of the source.
Key:
PPB = type: in vitro ADME; settings: plasma
[1] = Pharmacokinetics of intraperitoneal or intravenous injection in CD1 mice; type: in vivo; settings: for concentration at 0.25 h / concentration at 0.5 h / concentration at 1 h / concentration at 2 h / concentration at 4 h / concentration at 8 h / concentration at 24 h / AUC(0-t) / half-life / concentration at 0.033 h / concentration at 0.083 h: male, CD1, mouse, plasma
Procedure: The pharmacokinetics of exemplary compounds 103, 107, 100, 101, and 102 was examined for intraperitoneal and intravenous administration. The desired serial concentrations of working solutions were achieved by diluting stock solution (1 mg/mL in DMSO) of analyte with methanol. In particular, 20 μL of working solutions (1, 2, 5, 10, 50, 100, 500, 1000, 2000 ng/mL) were added to 20 μL of the blank CD1 mice plasma to achieve calibration standards of 1-2000 ng/mL (1, 2, 5, 10, 50, 100, 500, 1000, 2000 ng/mL) in a total volume of 40 μL. Dose of IV and IP were diluted by 1000 fold and 10000 with methanol, 20 μL of the diluted dose solutions were added to 20 μL of the blank CD1 mice plasma to achieve dose samples. Next, 40 μL standards and 40 μL dose samples were added to 20 μL of IS (100 ng/mL) and 200 μL of acetonitrile for precipitating protein respectively. Then the samples were vortexed for 30 seconds. After centrifugation at 4 degree Celsius, 4000 rpm for 15 minutes, the supernatant was diluted 3 times with water. 10 μL of the diluted supernatant was injected into the LC/MS/MS system for quantitative analysis.
Exemplary compounds 103, 107, 100, 101, and 102 were administered intravenously (5 second injection of 10% HP-b-CD and 40 mM sodium acetate and 40 mM NaCl in water, pH4.5) or intraperitoneally (5% EtOH and 5% Solutol HS15 in D5W(ESD-2)) to 6-8 week old male CD1 mice (3 mice per treatment group for a total of 12 mice) at the time points indicated below in Table 7. The mice had free access to food and water.
Dorsal metatarsal vein samples (30 μL), except that the final sample was acquired via a heart puncture, were taken from the mice at the same the administration time points as shown in Table 7.

[2] = IV 1.0 mg/kg, CD1 mice plasma, 24 h
[3] = ip, 10 mg/kg, IP 10 mg/kg, CD1 mice plasma, read-out: Conc. (ng/mL) Mouse 1
[4] = ip, 10 mg/kg, IP 10 mg/kg, CD1 mice plasma, read-out: Conc. (ng/mL) Mouse 2
[5] = ip, 10 mg/kg, IP 10 mg/kg, CD1 mice plasma, read-out: Conc. (ng/mL) Mouse 3
[6] = ip, 10 mg/kg, IP 10 mg/kg, CD1 mice plasma, read-out: Mean
[7] = iv, 1 mg/kg, IV 1.0 mg/kg, CD1 mice plasma, read-out: Conc. (ng/mL) Mouse 1
[8] = iv, 1 mg/kg, IV 1.0 mg/kg, CD1 mice plasma, read-out: Conc. (ng/mL) Mouse 2
[9] = iv, 1 mg/kg, IV 1.0 mg/kg, CD1 mice plasma, read-out: Conc. (ng/mL) Mouse 3
[10] = iv, 1 mg/kg, IV 1.0 mg/kg, CD1 mice plasma, read-out: Mean

fraction unbound (PPB): 0.0022 | Conc. (ng/mL) Mouse 2 ([1]; IP 10 mg/kg, CD1 mice plasma, 24 h): BLOQ | Conc. (ng/mL) Mouse 1 [1, 2]: BLOQ | Conc. (ng/mL) Mouse 2 [1, 2]: BLOQ | Conc. (ng/mL) Mouse 3 [1, 2]: BLOQ | concentration at 0.25 h [1, 3]: 877 ng/mL | concentration at 0.25 h [1, 4]: 494 ng/mL | concentration at 0.25 h [1, 5]: 562 ng/mL | concentration at 0.25 h [1, 6]: 645 ng/mL | concentration at 0.5 h [1, 3]: 842 ng/mL | concentration at 0.5 h [1, 4]: 639 ng/mL | concentration at 0.5 h [1, 5]: 608 ng/mL | concentration at 0.5 h [1, 6]: 696 ng/mL | concentration at 1 h [1, 3]: 2010 ng/mL | concentration at 1 h [1, 4]: 2460 ng/mL | concentration at 1 h [1, 5]: 1230 ng/mL | concentration at 1 h [1, 6]: 1900 ng/mL | concentration at 2 h [1, 3]: 2130 ng/mL | concentration at 2 h [1, 4]: 3300 ng/mL | concentration at 2 h [1, 5]: 826 ng/mL | concentration at 2 h [1, 6]: 2090 ng/mL | concentration at 4 h [1, 3]: 1260 ng/mL | concentration at 4 h [1, 4]: 1210 ng/mL | concentration at 4 h [1, 5]: 768 ng/mL | concentration at 4 h [1, 6]: 1080 ng/mL | concentration at 8 h [1, 3]: 321 ng/mL | concentration at 8 h [1, 4]: 68.5 ng/mL | concentration at 8 h [1, 5]: 306 ng/mL | concentration at 8 h [1, 6]: 232 ng/mL | concentration at 24 h ([1]; ip, 10 mg/kg, IP 10 mg/kg, CD1 mice plasma, 24 h, read-out: Conc. (ng/mL) Mouse 1): 0.824 ng/mL | concentration at 24 h ([1]; ip, 10 mg/kg, IP 10 mg/kg, CD1 mice plasma, 24 h, read-out: Conc. (ng/mL) Mouse 3): 4.5 ng/mL | concentration at 24 h ([1]; ip, 10 mg/kg, IP 10 mg/kg, CD1 mice plasma, 24 h, read-out: Mean): 2.66 ng/mL | AUC(0-t) ([1]; ip, 10 mg/kg, read-out: AUClast (h * ng/mL) IP): 10400 ng·h/mL | half-life ([1]; ip, 10 mg/kg, read-out: T ½ (h) IP (converted)): 1.87 h | concentration at 0.033 h [1, 7]: 4370 ng/mL | concentration at 0.033 h [1, 8]: 3940 ng/mL | concentration at 0.033 h [1, 9]: 4020 ng/mL | concentration at 0.033 h [1, 10]: 4110 ng/mL | concentration at 0.083 h [1, 7]: 1660 ng/mL | concentration at 0.083 h [1, 8]: 1730 ng/mL | concentration at 0.083 h [1, 9]: 1820 ng/mL | concentration at 0.083 h [1, 10]: 1740 ng/mL | concentration at 0.25 h [1, 7]: 376 ng/mL | concentration at 0.25 h [1, 8]: 382 ng/mL | concentration at 0.25 h [1, 9]: 395 ng/mL | concentration at 0.25 h [1, 10]: 384 ng/mL | concentration at 0.5 h [1, 7]: 140 ng/mL | concentration at 0.5 h [1, 8]: 132 ng/mL | concentration at 0.5 h [1, 9]: 135 ng/mL | concentration at 0.5 h [1, 10]: 136 ng/mL | concentration at 1 h [1, 7]: 52.1 ng/mL | concentration at 1 h [1, 8]: 58.8 ng/mL | concentration at 1 h [1, 9]: 57.5 ng/mL | concentration at 1 h [1, 10]: 56.2 ng/mL | concentration at 2 h [1, 7]: 36.1 ng/mL | concentration at 2 h [1, 8]: 27.7 ng/mL | concentration at 2 h [1, 9]: 32.1 ng/mL | concentration at 2 h [1, 10]: 32 ng/mL | concentration at 4 h [1, 7]: 10.8 ng/mL | concentration at 4 h [1, 8]: 12.9 ng/mL | concentration at 4 h [1, 9]: 13 ng/mL | concentration at 4 h [1, 10]: 12.3 ng/mL | concentration at 8 h [1, 7]: 2.33 ng/mL | concentration at 8 h [1, 8]: 8.35 ng/mL | concentration at 8 h [1, 9]: 4.11 ng/mL | concentration at 8 h [1, 10]: 4.93 ng/mL | AUC(0-t) ([1]; iv, 1 mg/kg, read-out: AUClast (h * ng/mL) IV): 747 ng·h/mL | half-life ([1]; iv, 1 mg/kg, read-out: T ½ (h) IV (converted)): 2.44 h
SMILES: Cc1ncsc1-c1ccc(CNC(=O)[C@@H]2C[C@@H](O)CN2C(=O)[C@@H](NC(=O)CCOCCCOc2ccc(Nc3ncc(C(F)(F)F)c(NCc4cccc(N(C)S(C)(=O)=O)c4)n3)cc2)C(C)(C)C)cc1 [Compound 103, (2S,4R)-1-((S)-3,3-dimethyl-2-(3-(3-(4-((4-((3-(N-methylmethylsulfonamido)benzyl)amino)-5-(trifluoromethyl)pyrimidin-2-yl)amino)phenoxy)propoxy)propanamido)butanoyl)-4-hydroxy-N-(4-(4-methylthiazol-5-yl)benzyl)pyrrolidine-2-carboxamide]
